In publication PMC9250890 (Cell Reports, 2022):
Entries after “also recorded” stand apart in the source; their conditions may differ. Like-named read-outs stand apart in the source and are kept apart here.

How the values were obtained:
HeLa-ACE2 cells = assay: SARS2-PsV-induced multinucleated cell formation; type: cell-based; settings: SARS2-PsV 30 min
human ANO2 = molecular target: T1, human ANO2 (Homo sapiens, UniProt Q9NQ90); assay: YFP quenching anion channel assay, FRT-ANO2 cells; type: cell-based
T1 sequence (Q9NQ90 1-998): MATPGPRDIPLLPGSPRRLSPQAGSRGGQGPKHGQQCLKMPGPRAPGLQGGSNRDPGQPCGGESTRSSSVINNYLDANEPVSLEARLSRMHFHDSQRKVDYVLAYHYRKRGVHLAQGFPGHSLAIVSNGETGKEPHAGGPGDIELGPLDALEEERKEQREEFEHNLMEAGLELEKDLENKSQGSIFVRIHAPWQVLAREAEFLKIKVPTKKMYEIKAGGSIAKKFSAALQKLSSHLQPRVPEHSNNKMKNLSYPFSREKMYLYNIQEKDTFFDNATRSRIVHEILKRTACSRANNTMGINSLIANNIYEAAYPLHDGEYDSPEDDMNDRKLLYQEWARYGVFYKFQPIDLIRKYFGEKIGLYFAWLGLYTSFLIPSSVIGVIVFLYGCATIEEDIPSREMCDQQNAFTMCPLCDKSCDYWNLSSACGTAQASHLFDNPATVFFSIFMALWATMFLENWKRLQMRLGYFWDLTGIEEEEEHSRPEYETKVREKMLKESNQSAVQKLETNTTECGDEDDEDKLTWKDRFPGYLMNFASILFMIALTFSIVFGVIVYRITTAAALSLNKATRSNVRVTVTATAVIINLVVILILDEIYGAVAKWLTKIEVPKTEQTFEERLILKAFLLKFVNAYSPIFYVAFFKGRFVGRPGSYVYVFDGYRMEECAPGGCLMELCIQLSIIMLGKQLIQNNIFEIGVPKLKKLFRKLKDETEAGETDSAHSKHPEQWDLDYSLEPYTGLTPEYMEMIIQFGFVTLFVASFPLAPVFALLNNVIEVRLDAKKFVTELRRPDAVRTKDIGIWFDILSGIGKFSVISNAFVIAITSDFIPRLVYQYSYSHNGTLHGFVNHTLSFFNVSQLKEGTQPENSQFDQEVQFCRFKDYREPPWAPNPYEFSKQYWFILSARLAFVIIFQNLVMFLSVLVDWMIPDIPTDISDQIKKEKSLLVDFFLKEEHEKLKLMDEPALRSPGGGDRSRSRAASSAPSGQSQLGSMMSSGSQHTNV

[1] = molecular target: T2, ANO6 phospholipid scramblase (Homo sapiens, UniProt Q4KMQ2); assay: Ionomycin-induced PS externalization; type: cell-based
T2 sequence (Q4KMQ2 1-931 isoform Q4KMQ2-2): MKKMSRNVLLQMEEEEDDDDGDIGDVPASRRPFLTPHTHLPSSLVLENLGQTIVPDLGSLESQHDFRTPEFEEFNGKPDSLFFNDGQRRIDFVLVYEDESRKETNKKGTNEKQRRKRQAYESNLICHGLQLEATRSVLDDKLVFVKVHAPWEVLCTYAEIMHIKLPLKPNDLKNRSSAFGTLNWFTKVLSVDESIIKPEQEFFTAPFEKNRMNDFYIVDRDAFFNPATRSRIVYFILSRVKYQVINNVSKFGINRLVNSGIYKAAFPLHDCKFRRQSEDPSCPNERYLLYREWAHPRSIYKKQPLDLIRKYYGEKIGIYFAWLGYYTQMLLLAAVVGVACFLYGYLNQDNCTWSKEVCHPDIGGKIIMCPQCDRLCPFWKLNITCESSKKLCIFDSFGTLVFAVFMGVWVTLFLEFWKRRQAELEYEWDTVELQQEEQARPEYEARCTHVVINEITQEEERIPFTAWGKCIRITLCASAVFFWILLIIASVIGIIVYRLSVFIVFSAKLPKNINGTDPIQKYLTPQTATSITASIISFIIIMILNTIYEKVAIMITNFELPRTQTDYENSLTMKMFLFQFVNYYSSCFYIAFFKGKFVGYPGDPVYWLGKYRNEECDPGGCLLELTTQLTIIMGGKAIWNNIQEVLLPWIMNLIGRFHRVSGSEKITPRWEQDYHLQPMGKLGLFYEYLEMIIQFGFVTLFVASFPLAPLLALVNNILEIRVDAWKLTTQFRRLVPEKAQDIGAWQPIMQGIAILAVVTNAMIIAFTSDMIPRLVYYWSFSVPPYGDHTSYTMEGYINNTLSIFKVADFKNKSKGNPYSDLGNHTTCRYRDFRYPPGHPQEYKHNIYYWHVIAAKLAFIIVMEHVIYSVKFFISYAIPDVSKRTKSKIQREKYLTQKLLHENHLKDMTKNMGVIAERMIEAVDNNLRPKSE

SARS-CoV-2 [2] = assay: Viral replication of authentic SARS-CoV-2 in Calu-3 cells; type: cell-based
[3] = tested on: recombinant eGFP adenovirus (Ad-eGFP); assay: Adenovirus; type: cell-based; settings: 10 μM; 1 MOI; 48 h; HEK 293T
[4] = tested on: HEK 293T-ACE2-TMPRSS2 cells; type: cell-based; settings: 10 μM, ATP 100 μM
[5] = tested on: HEK 293T-ACE2-TMPRSS2 cells; assay: SARS2-PsV-induced cytosolic Ca2+ signals; type: cell-based; settings: pretreatment: BAPTA-AM 3 μM, camostat 10 μM, A6-001 10 μM
human WT-CFTR = assay: CFTR short-circuit current in FRT-CFTR cells; type: cell-based; settings: up to a 30-μM concentration
Calu-3 cells = assay: Cell viability MTS assay, Calu-3 cells; type: cell-based, human; settings: Calu-3 and Vero cells
SARS-CoV-2 [6] = assay: Cellular viral RNAs by qPCR at 4 h post-infection in Vero cells; type: cell-based; settings: 0.01 MOI
hANO6 = settings: 10 μM
ANO6 (TMEM16F) = molecular target: T3, ANO6 (TMEM16F) (Homo sapiens, UniProt Q4KMQ2); assay: Whole-cell patch clamp of ANO6 currents in HEK 293T-ANO6 cells; type: cell-based
T3 sequence (Q4KMQ2 1-931 isoform Q4KMQ2-2): T2 sequence (Q4KMQ2 1-931 isoform Q4KMQ2-2)

SARS-CoV-2 [7] = assay: Viral replication of authentic SARS-CoV-2 in Vero cells; type: cell-based; settings: for IC50: read-out: IC50, viral replication, Vero, supernatant
human ANO6 = molecular target: T4, human ANO6 (Homo sapiens, UniProt Q4KMQ2); assay: YFP fluorescence quenching-based anion channel assay, FRT-ANO6 cells; type: cell-based; settings: half-maximal inhibitory concentration [IC50], ANO6 ion channel, FRT-ANO6 cells; 10 μM ionomycin
T4 sequence (Q4KMQ2 1-931 isoform Q4KMQ2-2): T2 sequence (Q4KMQ2 1-931 isoform Q4KMQ2-2)

[8] = 10 μM during infection and 4 h post-infection
[9] = 10 μM during the infection period alone

## O=C(NCc1ccc(F)cc1)c1cccc(Nc2ccc(-c3ccccc3)nn2)c1 [A6-001, N-(4-fluorobenzyl)-3-((6-phenylpyridazin-3-yl)amino)benzamide]
HeLa-ACE2 cells
  multinucleated cell formation: inhibits; also recorded: significantly reduced
Human ANO2
  ANO6 selectivity against ANO2: 90 fold
[1]
  IC50: 910 nM
[1]; 10 μM, FRT-ANO6 cells
  ionomycin-induced PS externalization: most effective
[1]; larger
  scramblase IC50 relative to that for ANO6 ion channel activity: approximately 10 fold
SARS-CoV-2 [2]; 10 μM, 48 h, […], Calu-3
  viral reduction, qPCR: 1/50
  ΔCt: −13.5
SARS-CoV-2 [2]; Severe acute respiratory syndrome coronavirus 2, Calu-3, 48 h, read-out: IC50, viral replication
  IC50: 970 nM
[3]
  replications of the non-enveloped adenovirus: did not affect
[4]
  purinergic agonist (ATP)-induced Ca2+ response: did not alter
[5]
  SARS2-PsV-induced cytosolic Ca2+ signals: did not affect
Human WT-CFTR
  CFTR currents: did not affect
Calu-3 cells
  safety margin: > 100
SARS-CoV-2 [6]; [8]
  reduction in cellular viral RNAs: 98%
  ΔΔCt, cellular viral RNA: 5.58
SARS-CoV-2 [6]; [9]
  cellular viral reduction, authentic virus: 86%
  ΔΔCt, cellular viral RNA: 2.84
hANO6; Jurkat-ANO6
  ionomycin-induced increase in Lact-C2-positive, PI-negative cell population (Q3): reversed
hANO6; Jurkat
  ionomycin-induced increase in Lact-C2-positive, PI-negative cell population (Q3): reversed
ANO6 (TMEM16F)
  IC50: 70 nM
SARS-CoV-2 [7]; 10 μM, 48 h, Vero
  viral reduction, plaque assay: 1/500
  viral reduction, qPCR: 1/150
  ΔCt: −11.8
SARS-CoV-2 [7]; Severe acute respiratory syndrome coronavirus 2, Vero, 48 h
  IC50: 930 nM
SARS-CoV-2 [7]; Vero, 48 h, light microscopy
  virus-induced cytolysis: dose dependently reduced
SARS-CoV-2 [7]
  IC50: 740 nM
Human ANO6
  IC50: 90 nM
